According to patent publication US20240246992A1, “MACROCYCLIC LRRK2 KINASE INHIBITORS” (LES LABORATOIRES SERVIER, priority 2021, published 2024):
pIC50: −log10 of the molar value.

target: human recombinant LRRK2 protein (Homo sapiens, UniProt Q5S007); experiment: LRRK2 kinase activity assay (ADP-Glo, LRRKtide peptide); format: biochemical; settings: human recombinant LRRK2 wt, LRRKtide peptide and ATP, 1 h at 37° C.
How it was run: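 ADP-Glo luminescence read-out of a peptide assay: compound, ATP and LRRKtide substrate combined with recombinant human LRRK2 and incubated at 37 °C for 1 h. Ten-point data, N=2, curve-fitted to IC50.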

human recombinant LRRK2 protein, sequence (Q5S007 whole entry): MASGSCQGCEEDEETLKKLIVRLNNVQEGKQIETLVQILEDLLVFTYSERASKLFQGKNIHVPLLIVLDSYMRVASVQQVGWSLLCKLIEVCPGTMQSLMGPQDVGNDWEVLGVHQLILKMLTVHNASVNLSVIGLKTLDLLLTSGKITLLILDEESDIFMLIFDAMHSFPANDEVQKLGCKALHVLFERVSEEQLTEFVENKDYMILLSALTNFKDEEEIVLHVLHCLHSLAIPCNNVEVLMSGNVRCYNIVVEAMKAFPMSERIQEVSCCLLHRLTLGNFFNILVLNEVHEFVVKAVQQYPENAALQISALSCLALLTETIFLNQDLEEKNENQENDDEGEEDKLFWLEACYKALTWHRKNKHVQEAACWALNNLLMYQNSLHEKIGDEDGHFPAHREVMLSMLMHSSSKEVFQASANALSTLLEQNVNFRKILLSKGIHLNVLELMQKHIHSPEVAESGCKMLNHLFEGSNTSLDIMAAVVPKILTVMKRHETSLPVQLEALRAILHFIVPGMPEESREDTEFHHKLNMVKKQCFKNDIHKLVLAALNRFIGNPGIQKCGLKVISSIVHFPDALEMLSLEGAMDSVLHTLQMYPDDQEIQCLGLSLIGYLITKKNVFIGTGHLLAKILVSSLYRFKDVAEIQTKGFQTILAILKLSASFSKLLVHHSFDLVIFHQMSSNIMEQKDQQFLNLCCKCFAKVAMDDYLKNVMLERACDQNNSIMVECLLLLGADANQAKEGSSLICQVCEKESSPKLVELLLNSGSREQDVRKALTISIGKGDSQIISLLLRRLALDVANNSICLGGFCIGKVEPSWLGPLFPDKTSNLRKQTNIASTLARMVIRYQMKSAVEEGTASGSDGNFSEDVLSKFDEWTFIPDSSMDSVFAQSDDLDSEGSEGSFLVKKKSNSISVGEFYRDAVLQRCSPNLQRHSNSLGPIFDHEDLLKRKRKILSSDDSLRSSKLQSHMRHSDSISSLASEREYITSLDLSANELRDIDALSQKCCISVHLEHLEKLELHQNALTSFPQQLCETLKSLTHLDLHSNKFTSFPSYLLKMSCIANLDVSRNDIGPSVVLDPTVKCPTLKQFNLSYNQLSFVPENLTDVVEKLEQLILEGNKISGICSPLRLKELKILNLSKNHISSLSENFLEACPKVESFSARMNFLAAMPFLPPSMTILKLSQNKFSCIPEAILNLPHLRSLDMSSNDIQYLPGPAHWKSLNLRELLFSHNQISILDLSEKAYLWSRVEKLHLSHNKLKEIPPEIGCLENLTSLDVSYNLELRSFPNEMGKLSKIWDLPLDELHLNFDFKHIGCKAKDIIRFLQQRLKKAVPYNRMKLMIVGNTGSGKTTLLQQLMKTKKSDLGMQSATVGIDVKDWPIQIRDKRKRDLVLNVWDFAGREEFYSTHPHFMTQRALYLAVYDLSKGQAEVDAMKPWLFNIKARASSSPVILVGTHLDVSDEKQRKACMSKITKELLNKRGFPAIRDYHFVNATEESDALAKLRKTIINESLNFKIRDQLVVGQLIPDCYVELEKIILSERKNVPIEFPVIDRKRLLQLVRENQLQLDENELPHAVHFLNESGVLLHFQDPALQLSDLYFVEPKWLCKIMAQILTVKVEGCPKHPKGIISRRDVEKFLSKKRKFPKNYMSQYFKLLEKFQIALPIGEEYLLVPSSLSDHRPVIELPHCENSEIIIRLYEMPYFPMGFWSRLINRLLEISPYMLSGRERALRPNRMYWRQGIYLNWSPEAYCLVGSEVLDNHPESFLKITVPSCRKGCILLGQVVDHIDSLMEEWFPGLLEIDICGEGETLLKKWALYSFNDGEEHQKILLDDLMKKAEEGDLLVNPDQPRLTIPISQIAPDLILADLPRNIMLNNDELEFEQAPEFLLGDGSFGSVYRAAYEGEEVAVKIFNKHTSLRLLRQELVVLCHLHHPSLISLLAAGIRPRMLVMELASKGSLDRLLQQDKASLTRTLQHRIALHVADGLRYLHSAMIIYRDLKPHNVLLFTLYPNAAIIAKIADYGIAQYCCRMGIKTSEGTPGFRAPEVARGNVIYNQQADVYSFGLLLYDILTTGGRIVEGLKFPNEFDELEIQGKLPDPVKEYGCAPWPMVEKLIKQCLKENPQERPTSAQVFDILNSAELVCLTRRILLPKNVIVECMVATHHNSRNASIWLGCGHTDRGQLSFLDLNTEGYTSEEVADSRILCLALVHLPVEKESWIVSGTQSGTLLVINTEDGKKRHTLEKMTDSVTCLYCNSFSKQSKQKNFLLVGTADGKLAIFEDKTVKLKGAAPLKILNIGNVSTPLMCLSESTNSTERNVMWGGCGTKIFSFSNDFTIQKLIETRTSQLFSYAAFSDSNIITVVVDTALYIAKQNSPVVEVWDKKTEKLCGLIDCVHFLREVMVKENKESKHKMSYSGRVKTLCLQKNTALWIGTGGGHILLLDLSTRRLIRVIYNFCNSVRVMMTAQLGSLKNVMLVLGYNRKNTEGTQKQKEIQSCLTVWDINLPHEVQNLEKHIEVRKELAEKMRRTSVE

Row | SMILES | pIC50
1 | c1cc2nc(c1)-c1n[nH]c3ccc(cc13)OCCCNCCO2 [Example 237, 7,14-dioxa-10,19,20,23-tetraazatetracyclo[13.5.2.1^2,6.0^18,21]tricosa-1(20),2,4,6(23),15,17,21-heptaene] | > 8.00
2 | c1ncc2cc1OCCCNCCOc1ccc3[nH]nc-2c3c1 [Example 238, 7,14-dioxa-4,11,19,20-tetraazatetracyclo[13.5.2.1^2,6.0^18,21]tricosa-1(20),2,4,6(23),15,17,21-heptaene] | > 8.00
3 | CC(C)Oc1cc2cc(c1)-c1n[nH]c3ccc(cc13)OCCCN(C)CCO2 [Example 239, 10-methyl-4-(propan-2-yloxy)-7,14-dioxa-10,19,20-triazatetracyclo[13.5.2.1^2,6.0^18,21]tricosa-1(20),2,4,6(23),15,17,21-heptaene] | > 7.00
4 | CC1CCOc2ccc3[nH]nc(c3c2)-c2cccc(n2)OCCN1 (stereo not drawn) [Example 240, 11-methyl-7,14-dioxa-10,19,20,23-tetraazatetracyclo[13.5.2.1^2,6.0^18,21]tricosa-1(20),2,4,6(23),15,17,21-heptaene] | > 8.00
5 | C[C@@H]1CCNC(=O)C[C@H](C)n2ncc(n2)-c2n[nH]c3ccc(cc23)O1 [Example 242] | > 8.00
6 | C[C@@H]1CCN(C)C(=O)C[C@H](C)n2ncc(n2)-c2n[nH]c3ccc(cc23)O1 [Example 243] | > 7.00
7 | C[C@@H]1CCN(C)CC[C@H](C)n2ncc(n2)-c2n[nH]c3ccc(cc23)O1 [Example 244, (6S,12R)-6,9,12-trimethyl-13-oxa-4,5,9,18,19,22-hexaazatetracyclo[12.5.2.1^2,5.0^17,20]docosa-1(19),2(22),3,14(21),15,17(20)-hexaene] | > 7.00
8 | C[C@@H]1CCOCCCn2cc(cn2)-c2n[nH]c3cnc(cc23)O1 [Example 245, (12R)-12-methyl-9,13-dioxa-4,5,15,18,19-pentaaza tetracyclo[12.5.2.1^2,5.0^17,20]docosa-1(19),2(22),3,14(21),15,17(20)-hexaene] | > 8.00
9 | C[C@H]1COc2cc3c(n[nH]c3cn2)-c2cnn(c2)CCOCCO1 [Example 246] | > 7.00
